From patent US20210361774A1, “DEGRADERS OF WILD-TYPE AND MUTANT FORMS OF LRRK2” (DANA-FARBER CANCER INSTITUTE, INC., priority 2018, published 2021) come the findings set out here.

The target of one assay is T1, LRRK2 wt (Homo sapiens, UniProt Q5S007).
T1 construct: purchased Invitrogen
Description: IC50 experiments, Invitrogen Adapta assay, LRRK2 wt. The format is biochemical. On the procedure: (§1) IC50 experiments were performed using Invitrogen™'s Adapta™ assay.

In the next assay the test system is LRRK2. Description: Cellular degradation of LRRK2, Western blot in MEFs. The format is cell-based, Mouse. The note with it: Western blot, time course, 0 nM-1000 nM. On the procedure: (§2) Cell lines used: Mouse embryonic fibroblast (MEF) WT, LRRK2 homozygous knock-ins in MEFs [R1441C; VPS35N(D620N); G2019S].
(§3) Tested concentration of LRRK2 degraders: 0 nM, 10 nM, 30 nM, 100 nM, 300 nM, 1000 nM. Additional concentrations tested for inventive compound 3: 2 uM, 5 uM and 10 uM.
(§4) Complete growth medium: DMEM supplemented with: 10% Fetal Bovine Serum; 1% pen/strep; 1% L-Glutamine; 1% MEM Non-essential Amino Acid Solution; 1% sodium pyruvate.
(§5) Commercial and in-house purified antibodies: • (a) Mouse anti-LRRK2/Dardarin antibody from Antibodies, Inc. (Cat #75-253). • (b) Rabbit monoclonal antibodies for total LRRK2 (UDD3) and pS935-LRRK2 (UDD2) were purified at the University of Dundee (as described in Dzamko et al., PLoS One 7(6): e39132 (2012). • (c) Loading controls: anti-α-tubulin (Cell Signaling Technology #5174); anti-GAPDH (Santa Cruz Biotechnology Cat. #sc-32233) • (d) (p)Rab10 antibodies: rabbit anti-RAB10 (phospho T73) antibody [MJF-R21] (ab230261); mouse MJFF-total Rab10 monoclonal antibody were generated by nanoTools (www.nanotools.de); rabbit Rab10 total was from Cell Signaling Technology (Rab10 (D36C4) XP® Rabbit mAb #8127)
(§6) Treatment: WT MEF, R1441C, VPS35N and G2019S mutants' cells were plated at equal density into 6-well plates in a final volume of 3 mL of complete growth medium/well. Degraders were reconstituted in DMSO and used at 1:1000 in cells i.e. 3 μl/3 ml. Treatment began when cells were >60% confluent, starting from a 48-hour time point, followed by a 24-hour time point, a 6-hour time point and finally a 1-hour time point.
(§7) Cell lysis: Media were aspirated, plates were placed on ice and cells were washed with Dulbecco's phosphate-buffered saline (DPBS). Fifty microliters of an ice-cold lysis buffer containing 50 mM Tris-HCl, pH 7.5, 1% (v/v) Triton X-100, 1 mM ethylene glycol-bis(μ-aminoethyl ether)-N,N,N′,N′-tetraacetic acid (EGTA), 1 mM sodium orthovanadate, 50 mM NaF, 0.1% (v/v) 2-mercaptoethanol, 10 mM 2-glycerophosphate, 5 mM sodium pyrophosphate, 0.1 μg/ml microcystin-LR (Enzo Life Sciences), 270 mM sucrose and complete EDTA-free protease inhibitor cocktail (Sigma-Aldrich Cat #11836170001) was added per well. Lysates were centrifuged at 20,817 g (14,000 rpm) for 15 min at 4° C. and supernatants were used to determine protein concentration using Bradford assay (Pierce™ Coomassie (Bradford) Protein Assay Kit, Thermo Scientific™ Cat #23200) and for Western blot analysis.
(§8) Western blot analysis: Cell lysates were mixed with 4× SDS-PAGE sample buffer [50 mM Tris-HCl, pH 6.8, 2% (w/v) SDS, 10% (v/v) glycerol, 0.02% (w/v) Bromophenol Blue and 1% (v/v) 2-mercaptoethanol] to a final total protein concentration of 1 μg/μl and heated at 95° C. for 5 minutes. Twenty micrograms of samples were loaded onto NuPAGE™ 4-12% Bis-Tris gradient gels (Life Technologies) along with 3 μl of BIO-RAD protein marker (Precision Plus Protein™ All Blue Prestained Protein Standards #1610373 kDa), gels were run in duplicates at 110V for 2 hours and 30 minutes with the NuPAGE™ MOPS SDS running buffer (Life Technologies, Cat #NP0001-02). After electrophoresis, the separated proteins were transferred onto the nitrocellulose membrane (GE Healthcare, Amersham Protran 0.45 μm NC) at 90 V for 90 minutes. Transferred membranes were briefly stained with Ponceau S stain and divided into 3 strips, as described earlier in Fan et al., Biochem. J. 475:23-44 (2018). Briefly, upper strip was cut from the top of the membrane to 75 kDa, middle strip cut was between 75 kDa—30 kDa and bottom strip cut was from 30 kDa—to the bottom of the membrane. Membrane strips were blocked at room temperature with 5% (w/v) dried skimmed milk dissolved in TBS-T [20 mM Tris-HCl, pH 7.5, 150 mM NaCl and 0.1% (v/v) Tween® 20] for 1 hour, washed four times with ten minutes intervals in TBS-T and incubated with primary antibodies diluted in 5% BSA (bovine serum albumin) in TBS-T overnight at 4° C. […]
For orientation: In western blotting, separated proteins are transferred to a membrane and probed.

The subject of a further assay is LRRK2 pS935. Description: Inhibition of phosphorylation of S935, Western blot in MEFs. The format is cell-based, Mouse. The note with it: Western blot, time course, 0 nM-1000 nM. As for the experimental part:
as §2, §3, §4, §5, §6, §7, §8

The target in the next assay is T2, LRRK2 G2019S (Homo sapiens, UniProt Q5S007, G2019S).
T2 construct: purchased Invitrogen
Description: IC50 experiments, Invitrogen Adapta assay, LRRK2 G2019S. The format is biochemical. As for the experimental part:
as §1

Assay [1] addresses T3, LRRK2 R1441C homozygous knock-in MEFs (Mus musculus, UniProt Q5S006, R1441C).
T3 construct: endogenous in cells; host or cells: LRRK2 R1441C homozygous knock-in MEFs
The assay can be described thus: Cellular degradation of LRRK2 in R1441C homozygous cells, Western blot. The assay is classed as cell-based. The note with it: R1441C homozygous cells (FIG. 3B), time course, 0 nM-1000 nM. As for the experimental part: as §2, §3, §4, §5
Treatment: WT MEF, R1441C, VPS35N and G2019S mutants' cells were plated at equal density into 6-well plates in a final volume of 3 mL of complete growth medium/well. Degraders were reconstituted in DMSO and used at 1:1000 in cells i.e. 3 μl/3 ml. […]

Another assay relates to Rab10 (phospho T73). Description: Inhibition of phosphorylation of Rab10, Western blot in MEFs. The format is cell-based, Mouse. Conditions: Western blot, time course, 0 nM-1000 nM. As for the experimental part: as §2, §3, §4, §5, §6, §7, §8

T3 sequence (Q5S006 whole entry R1441C): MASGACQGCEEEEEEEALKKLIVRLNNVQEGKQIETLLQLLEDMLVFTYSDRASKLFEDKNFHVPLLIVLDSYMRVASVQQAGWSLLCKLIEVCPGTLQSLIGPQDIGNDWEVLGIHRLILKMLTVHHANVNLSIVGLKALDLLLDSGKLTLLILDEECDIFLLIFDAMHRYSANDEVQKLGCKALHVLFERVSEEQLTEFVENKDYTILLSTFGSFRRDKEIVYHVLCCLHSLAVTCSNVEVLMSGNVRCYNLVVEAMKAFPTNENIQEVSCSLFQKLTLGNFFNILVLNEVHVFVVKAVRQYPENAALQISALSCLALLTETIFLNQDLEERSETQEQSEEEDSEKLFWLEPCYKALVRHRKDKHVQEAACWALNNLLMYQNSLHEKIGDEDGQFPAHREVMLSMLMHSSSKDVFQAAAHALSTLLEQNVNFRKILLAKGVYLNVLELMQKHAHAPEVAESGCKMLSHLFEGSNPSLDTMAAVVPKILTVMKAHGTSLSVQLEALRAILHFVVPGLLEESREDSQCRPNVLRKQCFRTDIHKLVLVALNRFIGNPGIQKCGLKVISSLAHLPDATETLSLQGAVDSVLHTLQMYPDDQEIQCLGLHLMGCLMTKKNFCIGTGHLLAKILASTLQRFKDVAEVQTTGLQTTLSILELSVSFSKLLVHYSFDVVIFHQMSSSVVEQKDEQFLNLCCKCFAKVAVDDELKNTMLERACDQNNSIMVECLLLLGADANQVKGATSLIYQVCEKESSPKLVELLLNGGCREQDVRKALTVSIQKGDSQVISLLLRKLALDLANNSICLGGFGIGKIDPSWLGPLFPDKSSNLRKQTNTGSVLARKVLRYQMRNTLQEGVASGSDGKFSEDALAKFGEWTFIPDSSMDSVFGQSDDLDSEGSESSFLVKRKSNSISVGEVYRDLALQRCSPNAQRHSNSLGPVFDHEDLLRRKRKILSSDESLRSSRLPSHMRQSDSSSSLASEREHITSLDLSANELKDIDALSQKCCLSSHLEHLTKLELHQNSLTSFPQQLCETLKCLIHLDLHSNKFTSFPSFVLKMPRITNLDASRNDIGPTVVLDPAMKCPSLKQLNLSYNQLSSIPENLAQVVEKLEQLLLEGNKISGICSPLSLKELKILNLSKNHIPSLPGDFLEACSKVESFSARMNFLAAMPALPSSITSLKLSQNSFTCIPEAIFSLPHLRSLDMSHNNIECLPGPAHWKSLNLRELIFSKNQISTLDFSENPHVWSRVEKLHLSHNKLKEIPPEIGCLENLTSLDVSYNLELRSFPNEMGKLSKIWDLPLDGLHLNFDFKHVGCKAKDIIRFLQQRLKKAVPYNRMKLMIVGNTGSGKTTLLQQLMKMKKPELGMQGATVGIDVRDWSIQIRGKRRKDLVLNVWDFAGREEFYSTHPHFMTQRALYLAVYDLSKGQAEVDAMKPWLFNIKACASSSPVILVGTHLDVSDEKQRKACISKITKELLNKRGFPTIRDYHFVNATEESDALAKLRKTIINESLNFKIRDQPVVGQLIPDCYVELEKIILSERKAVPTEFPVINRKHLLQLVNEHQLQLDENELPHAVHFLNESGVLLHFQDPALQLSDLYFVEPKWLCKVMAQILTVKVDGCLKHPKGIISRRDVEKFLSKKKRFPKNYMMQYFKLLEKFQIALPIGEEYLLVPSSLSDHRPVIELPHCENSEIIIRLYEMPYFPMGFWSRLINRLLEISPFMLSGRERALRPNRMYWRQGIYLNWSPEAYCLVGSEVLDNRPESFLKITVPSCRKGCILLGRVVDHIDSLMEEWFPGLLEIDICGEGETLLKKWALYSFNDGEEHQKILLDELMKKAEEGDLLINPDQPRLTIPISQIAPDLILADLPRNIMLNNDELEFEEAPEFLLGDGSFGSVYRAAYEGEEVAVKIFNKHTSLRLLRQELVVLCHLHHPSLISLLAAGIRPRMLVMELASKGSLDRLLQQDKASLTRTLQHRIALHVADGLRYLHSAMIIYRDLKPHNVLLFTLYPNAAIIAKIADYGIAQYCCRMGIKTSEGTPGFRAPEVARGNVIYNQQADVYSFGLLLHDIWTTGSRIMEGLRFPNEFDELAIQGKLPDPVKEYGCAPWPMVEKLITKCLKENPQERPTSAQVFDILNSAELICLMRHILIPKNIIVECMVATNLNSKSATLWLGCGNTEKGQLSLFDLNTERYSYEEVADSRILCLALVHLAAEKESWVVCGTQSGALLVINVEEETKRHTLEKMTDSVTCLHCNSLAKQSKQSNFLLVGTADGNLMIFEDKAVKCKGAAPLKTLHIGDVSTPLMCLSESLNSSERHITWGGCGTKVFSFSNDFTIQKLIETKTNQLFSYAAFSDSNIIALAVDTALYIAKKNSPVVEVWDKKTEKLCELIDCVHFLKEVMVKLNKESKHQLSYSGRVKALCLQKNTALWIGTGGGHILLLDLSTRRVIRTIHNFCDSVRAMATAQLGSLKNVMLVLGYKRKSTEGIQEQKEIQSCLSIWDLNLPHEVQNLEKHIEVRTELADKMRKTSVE
T2 sequence (Q5S007 whole entry G2019S): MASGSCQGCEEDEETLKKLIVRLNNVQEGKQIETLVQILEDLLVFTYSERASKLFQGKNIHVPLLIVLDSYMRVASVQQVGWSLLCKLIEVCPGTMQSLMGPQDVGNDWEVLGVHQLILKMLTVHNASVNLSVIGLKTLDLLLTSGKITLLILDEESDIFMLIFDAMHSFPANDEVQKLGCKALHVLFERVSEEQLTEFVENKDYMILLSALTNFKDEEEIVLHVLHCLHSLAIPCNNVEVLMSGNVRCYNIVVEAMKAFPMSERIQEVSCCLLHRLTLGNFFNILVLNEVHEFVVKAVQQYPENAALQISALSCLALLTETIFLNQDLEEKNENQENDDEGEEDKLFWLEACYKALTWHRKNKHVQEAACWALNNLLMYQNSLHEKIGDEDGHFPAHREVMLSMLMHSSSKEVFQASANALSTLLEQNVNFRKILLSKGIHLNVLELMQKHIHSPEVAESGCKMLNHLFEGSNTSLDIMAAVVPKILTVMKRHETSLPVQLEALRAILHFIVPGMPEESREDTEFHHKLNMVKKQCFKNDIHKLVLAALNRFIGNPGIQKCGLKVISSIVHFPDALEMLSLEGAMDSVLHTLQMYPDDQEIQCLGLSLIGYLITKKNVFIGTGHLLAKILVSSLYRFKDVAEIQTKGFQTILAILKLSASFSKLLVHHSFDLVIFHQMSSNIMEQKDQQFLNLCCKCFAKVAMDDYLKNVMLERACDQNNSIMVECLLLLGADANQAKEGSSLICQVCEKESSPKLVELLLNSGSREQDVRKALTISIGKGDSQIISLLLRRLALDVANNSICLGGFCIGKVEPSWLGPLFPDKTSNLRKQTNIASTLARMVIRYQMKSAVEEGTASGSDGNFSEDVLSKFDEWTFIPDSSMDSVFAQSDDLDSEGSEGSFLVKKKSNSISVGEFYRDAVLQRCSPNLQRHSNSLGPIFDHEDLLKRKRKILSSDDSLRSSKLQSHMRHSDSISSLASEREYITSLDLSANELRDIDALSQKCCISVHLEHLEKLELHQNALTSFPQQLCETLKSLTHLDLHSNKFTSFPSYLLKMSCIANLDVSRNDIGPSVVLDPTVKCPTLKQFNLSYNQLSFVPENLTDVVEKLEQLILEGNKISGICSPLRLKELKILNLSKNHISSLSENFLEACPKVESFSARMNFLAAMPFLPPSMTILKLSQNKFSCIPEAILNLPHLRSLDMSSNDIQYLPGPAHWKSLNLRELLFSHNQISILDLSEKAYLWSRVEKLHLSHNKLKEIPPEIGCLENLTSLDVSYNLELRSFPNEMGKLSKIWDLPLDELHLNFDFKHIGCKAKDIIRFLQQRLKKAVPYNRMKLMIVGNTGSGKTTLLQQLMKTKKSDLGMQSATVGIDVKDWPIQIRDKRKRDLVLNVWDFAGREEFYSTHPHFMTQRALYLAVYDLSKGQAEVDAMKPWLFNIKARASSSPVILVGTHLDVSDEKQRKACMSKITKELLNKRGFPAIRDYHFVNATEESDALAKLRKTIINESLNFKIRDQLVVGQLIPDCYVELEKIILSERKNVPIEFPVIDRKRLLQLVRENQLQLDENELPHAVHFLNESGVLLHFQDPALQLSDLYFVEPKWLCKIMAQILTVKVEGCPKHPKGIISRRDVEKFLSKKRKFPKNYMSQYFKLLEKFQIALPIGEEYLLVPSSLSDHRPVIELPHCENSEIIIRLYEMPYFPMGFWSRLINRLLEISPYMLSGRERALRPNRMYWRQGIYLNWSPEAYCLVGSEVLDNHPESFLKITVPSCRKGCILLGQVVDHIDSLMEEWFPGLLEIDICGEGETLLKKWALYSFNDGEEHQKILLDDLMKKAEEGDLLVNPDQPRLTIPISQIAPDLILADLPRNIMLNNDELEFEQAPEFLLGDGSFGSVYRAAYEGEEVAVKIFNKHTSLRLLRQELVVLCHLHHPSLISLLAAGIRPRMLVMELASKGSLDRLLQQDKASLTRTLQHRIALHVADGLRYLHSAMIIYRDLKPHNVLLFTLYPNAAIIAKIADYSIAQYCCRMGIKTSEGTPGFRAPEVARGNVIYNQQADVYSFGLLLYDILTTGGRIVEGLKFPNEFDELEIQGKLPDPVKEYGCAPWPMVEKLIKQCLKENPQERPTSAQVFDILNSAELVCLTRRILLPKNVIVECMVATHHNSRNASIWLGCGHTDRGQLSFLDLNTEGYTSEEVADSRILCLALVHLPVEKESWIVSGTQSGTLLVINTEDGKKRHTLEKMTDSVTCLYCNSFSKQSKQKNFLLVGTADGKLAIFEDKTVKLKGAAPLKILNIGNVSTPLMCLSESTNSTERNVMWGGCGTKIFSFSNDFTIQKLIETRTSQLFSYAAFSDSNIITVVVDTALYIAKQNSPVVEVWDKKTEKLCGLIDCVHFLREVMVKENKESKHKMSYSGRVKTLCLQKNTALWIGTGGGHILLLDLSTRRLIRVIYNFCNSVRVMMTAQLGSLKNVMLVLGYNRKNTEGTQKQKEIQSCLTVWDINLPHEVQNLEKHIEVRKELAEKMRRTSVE
T1 sequence (Q5S007 whole entry): as the sequence (Q5S007 whole entry G2019S) above, with S2019G counted along it

For `CNc1nc(Nc2ccc(C(=O)N3CCN(C(=O)CCCCCCCCOc4cccc5c4C(=O)N(C4CCC(=O)NC4=O)C5=O)CC3)cc2OC)ncc1C(F)(F)F` (stereo not drawn) [Compound 3, 2-(2,6-dioxopiperidin-3-yl)-4-((9-(4-(3-methoxy-4-((4-(methylamino)-5-(trifluoromethyl)pyrimidin-2-yl)amino)benzoyl)piperazin-1-yl)-9-oxononyl)oxy)isoindoline-1,3-dione], the IC50 (as a rule, the concentration needed to halve the response being measured) was 2 nM against LRRK2 wt and 1 nM on LRRK2 G2019S. In addition, the “degradation of LRRK2 (total level)” value in the assay with LRRK2 is recorded as “did not degrade”. In addition, the “inhibition of phosphorylation of S935” value with LRRK2 pS935 is on record as “inhibited”. Besides, in assay [1], the “degradation of LRRK2 (C-terminus)” value is reported as “observed”. Further, the “inhibition of phosphorylation of Rab10” value in the assay with Rab10 (phospho T73) is listed as “inhibited”.
